Measurements as given in US7217710B2, “Substituted pyrazolopyrimidines” (SmithKline Beecham Corporation, priority 2001, dated 2007).

How the values were obtained:
[1] = molecular target: T1, GST-TIE2 (intracellular domains of human TIE2) (Homo sapiens, UniProt Q02763); assay: TIE-2 Enzyme Assay (TIE2-E2), LANCE method; format: biochemical; conditions: read-out: TIE2 PIC50 TIE2-E2 assay
T1 construct: made in house
In short: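 GST-tagged human TIE2 intracellular domain (aa 762–1104), preactivated 2 h with 80 μM ATP, then 5 nM enzyme run 2 h at room temperature with 1 μM biotinylated D1–15 peptide, 80 μM ATP, HEPES pH 7.4, 2.4% DMSO. Phosphotyrosine detected by LANCE (Eu anti-pTyr/streptavidin-APC) after EDTA stop; IC50 by nonlinear regression, reported as pIC50.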

[2] = molecular target: T2, TIE2 intracellular domain/c-fms extracellular domain (TIE2/c-fms) chimeric protein (Homo sapiens, UniProt Q02763); assay: TIE-2 Autophosphorylation Assay (TIE2-C); format: cell-based; conditions: TIE2/c-fms expressing mouse 3T3 cells
T2 construct: fused on or other part: c-fms (CSF1R) extracellular domain in place of TIE2's own ectodomain; it serves as the capture handle for the anti-c-fms ELISA; P07333 (Macrophage colony-stimulating factor 1 receptor)
Procedure: TIE-2 Autophosphorylation Assay (TIE2-C)
The TIE-2 autophosphorylation assay uses an ELISA method and a TIE2 intracellular domain/c-fms extracellular domain (TIE2/c-fms) chimeric protein expressing mouse 3T3 cell line. This assay measures the autophosphorylation level of TIE2 protein expressed in cells. The cells are cultured in 96 well plates and grown in high glucose DMEM containing 10% serum at 37° C. in a humidified 10% CO2, 90% air incubator. On the day of the assay, the serum containing medium is removed from the cells and replaced with serum free medium for one hour. The test compound (diluted from a 10 mM stock in DMSO, final DMSO concentration is 0.1%) is incubated with TIE2/c-fms expressing cells for 30 minutes in serum free DMEM. Intrinsic cellular dephosphorylation of the receptor is blocked by the addition of the tyrosine phosphatase inhibitor, sodium orthovanadate, from a 100 mM aqueous stock to a final concentration of 1 mM. The culture media is removed by aspiration and the cells incubated for 30 to 60 mins on ice with lysis buffer containing 137 mM NaCl, 2 mM EDTA, 10% glycerol, 1 mM sodium ortho vanadate, 1×tyrosine phosphatase inhibitor cocktail (Sigma) and complete protease inhibitor cocktail (Roche) in 20 mM Tris-HCl (pH8.0). The cell extracts are transferred into Rat anti-c-fms antibody (Zymed-clone 12-2d6) ([…]) coated 96 well plates and incubated for 12 hrs at 4 degrees. The extracts are removed by aspiration and the plate, washed in a buffer comprising PBS, 0.05% Tween-20, 0.05% NP-40 and 5% SuperBlock (Pierce) followed by incubation with an HRP (horseradish peroxidase) conjugated anti-phosphotyrosine antibody, (Upstate Biotech) The plates are again washed with the aforementioned wash buffer and the colorimetric HRP substrate, TMB is added. The reaction progresses for 90 seconds and is stopped with the addition of 2M H2SO4. The optical density at 450 nm derived from HRP catalyzed TMB is measured with a plate reader capable of reading at the appropriate wavelength (e.g. SpectroMax from Molecular Dynamics). The percent inhibition of activity is calculated relative to non-vanadate treated control wells. The concentration of test compound that inhibits 50% of activity (IC50) is interpolated using nonlinear regression (Levernberg-Marquardt) and the equation, y=Vmax (1−x/(K+x))+Y2, where “K” is equal to the IC50.

[3] = molecular target: T3, catalytic domain of human VEGFR3 (Homo sapiens, UniProt P35916, H890Q); assay: VEGFR-3 Homogenous Time-Resolved Fluorescence Assay (VEGFR-3-HTRF); format: biochemical; conditions: read-out: VEGFR3 PIC50 VEGFR-3-HTRF assay
T3 construct: made in house; host or cells: Sf9 insect cells (baculovirus, pFastBac1)
From the text: VEGFR—3-Homogenous Time-Resolved Fluorescence Assay (VEGFR-3-HTRF)
This assay assesses Vascular Endothelial Growth Factor 3 (VEGFR3) tyrosine kinase inhibitory activity in substrate phosphorylation assays. The assay examines the ability of small molecule organic compounds to inhibit the tyrosine phosphorylation of a peptide substrate.
The substrate phosphorylation assays use the VEGFR3 catalytic domain, which is expressed in Sf. 9 insect cells as an amino-terminal GST-tagged fusion protein. The catalytic domain of human VEGFR3 (AA residues #819–1298 based upon GenBank Accession #XM003852) is cloned by PCR from human Placenta Marathon Ready cDNA (Clontech). The PCR product is subcloned into pFastBac1 vector containing an N-terminal GST tag. The resulting pFB/GST/VEGFR3icd vector is used to generate a recombinant baculovirus for protein expression. The VEGFR3 catalytic domain translated sequence is:
Autophosphorylation allows enzymes to be fully activated prior to addition to peptide substrates. The assays are performed using enzyme that has been activated by autophosphorylation via preincubation in buffer with ATP and magnesium. Activated enzyme is then diluted and added to titrated compound and the substrate mix.
200 nM VEGFR3 enzyme is activated for 45 minutes at room temperature by incubating the enzyme in buffer containing 100 mM HEPES (pH7.2), 75 μM ATP, 0.3 mM DTT, 0.1 mg/mL BSA, and 10 mM MgCl2. After activation, VEGFR3 is diluted 100-fold into 2× dilution buffer: 200 mM HEPES (pH 7.5), 0.2 mg/mL BSA, 0.6 mM DTT. 20 μL of the diluted enzyme mix is added to 20 μL of 2× substrate mix (150 μM ATP, 20 mM MgCl2, 0.72 μM biotinylated peptide) in the assay plates. Final assay conditions are: 100 mM HEPES (pH 7.2), 75 μM ATP, 10 mM MgCl2, 0.1 mg/mL BSA, 0.3 mM DTT, 0.36 μM biotinylated peptide, and 1 nM VEGFR3 enzyme. Assay plates are incubated for 1.5 hours at room temperature before the addition of 30 μL 100 mM EDTA to the wells to stop the enzymatic reaction. 40 μL/well of HTRF mix are then added to the assay plates for the detection of phosphorylated substrate. Final assay concentrations are: 100 mM HEPES (pH7.2), 0.1 mg/mL BSA, 15 nM streptavidin-labeled allophycocyanin (PerkinElmer), and 1 nM europium-labeled anti-phosphotyrosine antibody (PerkinElmer). Assay plates are left unsealed and are counted in a Wallac Multilabel Counter 1420 (PerkinElmer).
The data for dose responses are plotted as % Control calculated with the data reduction formula 100*(U1–C2)/(C1–C2) versus concentration of compound where U is the unknown value, C1 is the average control value obtained for DMSO , and C2 is the average control value obtained for 0.1M EDTA. Data are fitted to the curve described by: y=((Vmax*x)/(K+x)) where Vmax is the upper asymptote and K is the IC50.

[4] = molecular target: T4, GST-VEGFR2 (Homo sapiens, UniProt P35968); assay: VEGF-R2 Enzyme Assay (VEGF-E2), LANCE method; format: biochemical; conditions: read-out: VEGFR2 PIC50 VEGFR-E2 assay
T4 construct: GST-VEGFR2, baculovirus expressed recombinant constructs of the intracellular domains; made in house
T4 sequence (P35968 786-1356 limits assumed): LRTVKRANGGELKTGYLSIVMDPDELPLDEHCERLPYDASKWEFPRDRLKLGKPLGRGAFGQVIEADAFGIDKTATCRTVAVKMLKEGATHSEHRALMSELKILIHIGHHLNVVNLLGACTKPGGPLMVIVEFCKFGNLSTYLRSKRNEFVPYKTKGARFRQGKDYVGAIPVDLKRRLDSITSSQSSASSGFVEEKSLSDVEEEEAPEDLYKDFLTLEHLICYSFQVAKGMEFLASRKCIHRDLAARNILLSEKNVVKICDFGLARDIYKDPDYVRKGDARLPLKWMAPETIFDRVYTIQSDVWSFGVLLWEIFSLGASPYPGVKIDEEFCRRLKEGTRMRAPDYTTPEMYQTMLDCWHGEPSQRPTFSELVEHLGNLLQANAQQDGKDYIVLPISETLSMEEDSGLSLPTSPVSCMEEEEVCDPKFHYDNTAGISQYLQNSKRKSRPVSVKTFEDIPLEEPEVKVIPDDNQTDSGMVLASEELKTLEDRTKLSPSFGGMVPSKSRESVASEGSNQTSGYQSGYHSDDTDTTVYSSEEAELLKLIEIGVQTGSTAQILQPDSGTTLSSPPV

T1 sequence (Q02763 762-1104): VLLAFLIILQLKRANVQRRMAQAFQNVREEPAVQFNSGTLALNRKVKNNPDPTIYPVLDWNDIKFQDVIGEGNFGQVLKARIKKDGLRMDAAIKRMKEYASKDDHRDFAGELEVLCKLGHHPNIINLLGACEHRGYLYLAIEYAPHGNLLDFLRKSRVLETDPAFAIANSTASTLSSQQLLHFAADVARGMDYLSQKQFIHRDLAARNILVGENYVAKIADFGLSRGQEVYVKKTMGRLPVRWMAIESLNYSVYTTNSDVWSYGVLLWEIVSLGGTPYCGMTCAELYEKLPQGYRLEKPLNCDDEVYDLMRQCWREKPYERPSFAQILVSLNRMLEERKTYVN
T3 sequence (P35916 with tags, fused parts or gaps isoform P35916-1 H890Q): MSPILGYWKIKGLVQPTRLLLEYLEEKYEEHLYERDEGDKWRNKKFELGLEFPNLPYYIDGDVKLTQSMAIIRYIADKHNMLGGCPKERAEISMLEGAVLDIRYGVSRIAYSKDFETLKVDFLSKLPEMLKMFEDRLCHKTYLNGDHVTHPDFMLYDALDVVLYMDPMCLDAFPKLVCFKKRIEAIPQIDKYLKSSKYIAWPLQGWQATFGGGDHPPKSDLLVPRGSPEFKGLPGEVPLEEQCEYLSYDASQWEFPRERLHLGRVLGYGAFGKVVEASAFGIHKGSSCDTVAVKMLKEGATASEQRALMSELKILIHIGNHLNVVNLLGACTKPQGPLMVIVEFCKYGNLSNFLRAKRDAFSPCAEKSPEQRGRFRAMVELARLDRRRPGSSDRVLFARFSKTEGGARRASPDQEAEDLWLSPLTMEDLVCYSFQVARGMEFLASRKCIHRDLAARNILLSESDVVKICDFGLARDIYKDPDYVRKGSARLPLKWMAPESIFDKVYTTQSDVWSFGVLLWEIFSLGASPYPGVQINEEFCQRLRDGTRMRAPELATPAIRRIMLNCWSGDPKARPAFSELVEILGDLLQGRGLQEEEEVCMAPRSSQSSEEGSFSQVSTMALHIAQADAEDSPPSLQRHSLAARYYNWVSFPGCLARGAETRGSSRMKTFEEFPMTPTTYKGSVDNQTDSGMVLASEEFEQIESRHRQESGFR
T2 sequence (Q02763 whole entry, change not shown, the tested form may be a part): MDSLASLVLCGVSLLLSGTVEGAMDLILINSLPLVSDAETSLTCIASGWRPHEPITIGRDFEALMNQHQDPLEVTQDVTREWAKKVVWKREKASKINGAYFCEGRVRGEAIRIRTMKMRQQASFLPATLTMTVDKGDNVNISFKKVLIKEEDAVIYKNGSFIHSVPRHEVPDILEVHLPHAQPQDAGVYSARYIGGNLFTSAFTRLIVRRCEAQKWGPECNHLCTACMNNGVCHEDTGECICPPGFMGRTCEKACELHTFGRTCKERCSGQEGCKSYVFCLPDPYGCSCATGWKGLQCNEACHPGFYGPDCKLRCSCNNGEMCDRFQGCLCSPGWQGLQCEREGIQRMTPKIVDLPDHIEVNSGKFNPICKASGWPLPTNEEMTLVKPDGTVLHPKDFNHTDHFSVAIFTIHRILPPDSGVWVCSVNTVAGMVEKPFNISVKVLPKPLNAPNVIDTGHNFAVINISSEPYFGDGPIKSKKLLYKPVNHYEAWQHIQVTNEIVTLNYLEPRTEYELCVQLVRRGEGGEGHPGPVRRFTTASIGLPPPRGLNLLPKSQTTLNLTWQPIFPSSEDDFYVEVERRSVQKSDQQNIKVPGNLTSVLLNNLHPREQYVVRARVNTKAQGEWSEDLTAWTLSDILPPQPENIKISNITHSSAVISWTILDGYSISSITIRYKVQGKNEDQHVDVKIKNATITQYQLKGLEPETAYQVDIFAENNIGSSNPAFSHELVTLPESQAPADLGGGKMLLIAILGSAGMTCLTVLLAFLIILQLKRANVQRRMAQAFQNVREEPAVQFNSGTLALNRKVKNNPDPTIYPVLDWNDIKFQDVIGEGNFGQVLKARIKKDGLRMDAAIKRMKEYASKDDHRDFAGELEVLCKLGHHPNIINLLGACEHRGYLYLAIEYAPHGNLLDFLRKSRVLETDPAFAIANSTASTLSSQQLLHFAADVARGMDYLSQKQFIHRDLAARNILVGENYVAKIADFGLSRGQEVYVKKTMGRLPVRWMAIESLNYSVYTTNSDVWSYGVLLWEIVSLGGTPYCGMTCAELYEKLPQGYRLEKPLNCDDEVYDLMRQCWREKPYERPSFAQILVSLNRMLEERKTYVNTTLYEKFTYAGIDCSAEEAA

| IC50 [1] | IC50 [2] | IC50 [3] | IC50 [4] | SMILES |
| --- | --- | --- | --- | --- |
| ≤ 39.8 nM | ≥ 300 nM | > 10000 nM |  | CC1CCCCN1CCCNc1ncc2c(-c3ccc(NC(=O)Nc4cc(C(F)(F)F)ccc4F)cc3)nn(C)c2n1 (stereo not drawn) [Example 85] |
| ≤ 39.8 nM | ≥ 300 nM |  |  | CCN(CC)CCCNc1ncc2c(-c3ccc(NC(=O)Nc4cc(C(F)(F)F)ccc4F)cc3)nn(C)c2n1 [Example 88, 1-(2-Fluoro-5-trifluoromethyl-phenyl)-3-{4-[1-methyl-6-(3-diethylamino-propylamino)-1H-pyrazolo[3,4-d]pyrimidin-3-yl]-phenyl} urea] |
| ≤ 39.8 nM | ≥ 300 nM |  |  | CN1CCCC1CCNc1ncc2c(-c3ccc(NC(=O)Nc4cc(C(F)(F)F)ccc4F)cc3)nn(C)c2n1 (stereo not drawn) [Example 89, 1-(2-Fluoro-5-trifluoromethyl-phenyl)-3-{4-[1-methyl-6-[2-(1-methyl-pyrrolidin-2-yl)-ethylamino]-1H-pyrazolo[3,4-d]pyrimidin-3-yl]-phenyl} urea] |
| 39.8 to 100 nM |  | 1000 to 10000 nM | > 10000 nM | Cn1nc(-c2ccc(NC(=O)Nc3cc(C(F)(F)F)ccc3F)cc2)c2cnc(NCCCCNS(C)(=O)=O)nc21 [Example 97, N-[4-(3-{4-[3-(2-Fluoro-5-trifluoromethyl-phenyl)-ureido]-phenyl} -1-methyl-1H-pyrazolo[3,4-d]pyrimidin-6-ylamino)-butyl]-methanesulfonamide] |
| ≤ 39.8 nM |  | > 10000 nM | 1000 to 10000 nM | CC(=O)NCCNc1ncc2c(-c3ccc(NC(=O)Nc4cc(C(F)(F)F)ccc4F)cc3)nn(C)c2n1 [Example 98] |
| ≤ 39.8 nM |  | 1000 to 10000 nM | 1000 to 10000 nM | Cn1cccc1CCNc1ncc2c(-c3ccc(NC(=O)Nc4cc(C(F)(F)F)ccc4F)cc3)nn(C)c2n1 [Example 101, 1-(2-Fluoro-5-trifluoromethyl-phenyl)-3-{4-[1-methyl-6-(2-[1-methyl-1H-pyrrol-2-yl]-ethylamino)-1H-pyrazolo[3,4-d]pyrimidin-3-yl]-phenyl} urea] |
| > 10000 nM |  | 100 to 1000 nM | 1000 to 10000 nM | Cn1nc(-c2ccc(NS(=O)(=O)c3cccc(Cl)c3Cl)cc2)c2cnc(NCCN3CCNC3=O)nc21 [Example 109, 2,3-Dichloro-N-(4-{1-methyl-6-[2-(2-oxo-imidazolidin-1-yl)-ethylamino]-1H-pyrazolo[3,4-d]pyrimidin-3-yl]-phenyl}-benzenesulfonamide] |
| > 10000 nM |  | 1000 to 10000 nM | 1000 to 10000 nM | Cn1nc(-c2ccc(NS(=O)(=O)c3cccc(Cl)c3Cl)cc2)c2cnc(NCCCO)nc21 [Example 112, 2,3-Dichloro-N-{4-[1-methyl-6-(3-hydroxy-propylamino)-1H-pyrazolo[3,4-d]pyrimidin-3-yl]-phenyl}-benzenesulfonamide] |
| 1000 to 10000 nM |  | 1000 to 10000 nM | 1000 to 10000 nM | Cn1nc(-c2ccc(NS(=O)(=O)c3cccc(Cl)c3Cl)cc2)c2cnc(NCCCCO)nc21 [Example 113, 2,3-Dichloro-N-{4-[1-methyl-6-(4-hydroxy-butylamino)-1H-pyrazolo[3,4-d]pyrimidin-3-yl]-phenyl}-benzenesulfonamide] |
| 1000 to 10000 nM |  | 1000 to 10000 nM | 1000 to 10000 nM | Cn1nc(-c2ccc(NS(=O)(=O)c3cccc(Cl)c3Cl)cc2)c2cnc(NCCCCCO)nc21 [Example 114, 2,3-Dichloro-N-{4-[1-methyl-6-(5-hydroxy-pentylamino)-1H-pyrazolo[3,4-d]pyrimidin-3-yl]-phenyl}-benzenesulfonamide] |
| 1000 to 10000 nM |  | 1000 to 10000 nM | > 10000 nM | Cn1nc(-c2ccc(NS(=O)(=O)c3cccc(Cl)c3Cl)cc2)c2cnc(NCCCCNS(C)(=O)=O)nc21 [Example 122, 2,3-Dichloro-N-{4-[1-methyl-6-(4-methanesulfonylamino-butylamino)-1H-pyrazolo[3,4-d]pyrimidin-3-yl]-phenyl}-benzenesulfonamide] |
| ≤ 39.8 nM |  | 1000 to 10000 nM | 1000 to 10000 nM | Cn1nc(-c2ccc(NC(=O)Nc3cc(C(F)(F)F)ccc3F)c(F)c2)c2cnc(NCCCn3ccnc3)nc21 [Example 132, 1-(2-Fluoro-5-trifluoromethyl-phenyl)-3-{2-fluoro-4-[1-methyl-6-(3-(imidazol-1-ylpropylamino)-1H-pyrazolo[3,4-d]pyrimidin-3-yl)-phenyl]} urea] |
| ≤ 39.8 nM | ≥ 300 nM |  |  | CC1CCCCN1CCCNc1ncc2c(-c3ccc(NC(=O)Nc4cc(C(C)(C)C)on4)c(F)c3)nn(C)c2n1 (stereo not drawn) [Example 135] |
| ≤ 39.8 nM | ≥ 300 nM |  |  | CCN(CC)CCCNc1ncc2c(-c3ccc(NC(=O)Nc4cc(C(C)(C)C)on4)c(F)c3)nn(C)c2n1 [Example 136] |
| ≤ 39.8 nM | ≥ 300 nM |  |  | CN1CCCC1CCNc1ncc2c(-c3ccc(NC(=O)Nc4cc(C(C)(C)C)on4)c(F)c3)nn(C)c2n1 (stereo not drawn) [Example 137] |
| ≤ 39.8 nM | 100 to 300 nM |  |  | CN1CCN(CCCNc2ncc3c(-c4ccc(NC(=O)Nc5cc(C(C)(C)C)on5)c(F)c4)nn(C)c3n2)CC1 [Example 138] |
| 100 to 1000 nM |  | > 10000 nM | 1000 to 10000 nM | Cn1nc(-c2ccc(NC(=O)Nc3cc(C(F)(F)F)ccc3F)cc2)c2cnc(NCc3ccncc3)nc21 [Example 143, 1-(2-Fluoro-5-trifluoromethyl-phenyl)-3-{4-[(1-methyl-6-(pyridin-4-ylmethyl)-amino)-1H-pyrazolo[3,4-d]pyrimidin-3-yl]-phenyl} urea] |
| 39.8 to 100 nM | ≥ 300 nM | 1000 to 10000 nM |  | Cn1nc(-c2ccc(NC(=O)Nc3cc(C(F)(F)F)ccc3F)cc2)c2cnc(NCCc3c[nH]cn3)nc21 [Example 145] |
